PubChem BioAssay (NCI)
Values joined by “and” are separate entries in the source; they are usually repeats but may differ in a detail not shown here. Equal values may be shown once.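 Dose response: 5 concentrations. Exposure: 48 h. Format: 96-well plates. Endpoint: linear interpolation; highest concentration if not reached. Abbreviation: GI50, concentration required for 50% inhibition of growth. TGI is the concentration that stops growth completely.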

Legend:
Assay in all cases: inhibition of tumour cell growth, NCI panel, 48 h
[1] = test system: ACHN renal
[2] = test system: HCT-15 colon
[3] = test system: HOP-62 NSCLC
[4] = test system: K-562 leukemia
[5] = test system: MOLT-4 leukemia
[6] = test system: NCI-H522 lung
[7] = test system: SK-MEL-28 melanoma
[8] = test system: UO-31 renal

Structure (SMILES)	GI50 [1]	TGI [1]	GI50 [2]	TGI [2]	GI50 [3] [µM]	TGI [3]	GI50 [4]	TGI [4]	GI50 [5]	TGI [5]	GI50 [6]	TGI [6]	GI50 [7] [µM]	TGI [7] [µM]	GI50 [8]	TGI [8]
Oc1cc(O)c2c(=S)cc(-c3ccc(Cl)cc3)oc2c1	2.61 µM	11.1 µM	397 nM	11.9 µM	2.03	11.2 µM	3.48 µM	22.3 µM	3760 nM	34.2 µM	2290 nM	7.25 µM	4.15	18.4	1.21 µM	8.58 µM
COC(=O)C1CCC(Nc2cccc(C(F)(F)F)c2)=N1 (stereo unspecified)		> 100 µM		> 100 µM		> 100 µM		> 100 µM		> 100 µM		> 100 µM		> 100		> 100 µM
CC[C@@H](C(=O)[C@@H](C)[C@@H](O)[C@H](C)[C@@H]1O[C@@H]([C@@H](CC)C(=O)O)CC[C@@H]1C)[C@H]1OC2(C=C[C@@H](O)[C@]3(CC[C@@](C)([C@H]4CC[C@](O)(CC)[C@H](C)O4)O3)O2)[C@H](C)C[C@@H]1C (stereo partly specified)	1.68 µM	> 50 µM	1420 nM	> 50 µM	0.447	20.7 µM	0.213 µM	3.39 µM	726 nM	2.5 µM	77.4 nM	0.605 µM	0.63	1.31	1.27 µM	> 41.4 µM
COc1c(CNC(=O)CCl)cc2[nH]c(C)cc2c1CNC(=O)CCl	5.47 µM	31.6 µM	14900 nM	> 100 µM	6.1	20.2 µM	8.42 µM	> 100 µM	5190 nM	83.8 µM	1820 nM	4.16 µM	5.44	29.8	15.7 µM	56.7 µM
c1ccc(-c2nn(-c3ccccc3)[n+](-c3cccc4ccccc34)n2)cc1	12 µM	> 100 µM	31500 nM	> 100 µM	1.39	33.2 µM	0.608 µM	16.1 µM	1300 nM	15.8 µM	979 nM	10.9 µM	2.36	13.9	14 µM	> 100 µM
O=S1(=O)CS(=O)(=O)OCCCO1		> 100 µM		> 100 µM		> 100 µM		> 100 µM		> 100 µM		> 100 µM		> 100		> 100 µM
C=C1CCC2C3(C)COC(c4ccc(SC)cc4)OC3CCC2(C)C1C/C=C1/C(=O)OCC1O (stereo unspecified)	6.25 µM	17.2 µM	2370 nM	7.96 µM	17.3	32.8 µM	2.66 µM	12.2 µM	3430 nM	20.9 µM	1920 nM	5.98 µM	8.67	21.1	9.73 µM	21.9 µM
CC(=O)OC[C@]12CC[C@@H]([C@@H](C)C(N)=O)[C@@H]1[C@H]1CC[C@@H]3[C@@]4(C)CC[C@H](OC(C)=O)C(C)(C)[C@@H]4CC[C@@]3(C)[C@]1(C)CC2	5.78 µM	27.3 µM	4040 nM	15.3 µM	11	26.6 µM	4.09 µM	35.7 µM	3290 nM	15.2 µM	4940 nM	20.7 µM	12	27.3	7.57 µM	21.1 µM
O=C1c2ccccc2-c2c1c1ccccc1c(=O)n2CCCN1CCN(CCCn2c3c(c4ccccc4c2=O)C(=O)c2ccccc2-3)CC1	22.4 µM	> 100 µM	> 79700 nM	> 100 µM	6.41	53.4 µM	42.7 µM	> 100 µM	325 nM	21.9 µM	> 100000 nM	> 100 µM	> 100	> 100	> 45.7 µM	> 100 µM
COC(=O)[C@@]1(C)CC[C@]2(C)CC[C@]3(C)C4=CC=C5C(=CC(=O)C(O)=C5C)[C@]4(C)CC[C@@]3(C)[C@@H]2C1	0.154 µM	0.29 µM	171 nM	0.421 µM	0.483	1.54 µM	0.251 µM	0.715 µM	164 nM	0.525 µM	180 nM	0.435 µM	0.244	0.601	0.127 µM	0.261 µM
O=C(c1cccs1)c1c(C(F)(F)F)n([O-])c2ccc(F)cc2[n+]1=O	1.5 µM	2.82 µM	435 nM	1.64 µM	1.58	3.13 µM	0.0904 µM	0.27 µM	300 nM	1.02 µM	1460 nM	2.88 µM	1.52	2.86	1.3 µM	2.58 µM
CN1c2ccccc2S(=O)(=O)n2c(COc3ccc(Cl)cc3)nnc21		> 100 µM		> 100 µM		47.8 µM		> 100 µM		> 100 µM		> 100 µM		> 100		> 100 µM
C=C1C(=O)O[C@@H]2C[C@@H]1CC[C@@]1(C)O[C@@H]1CC[C@@]1(C)O[C@@H]1CC[C@@]2(C)O	21.5 µM	66.4 µM	24000 nM	70.1 µM	32.9	> 100 µM	> 100 µM	> 100 µM	10100 nM	32.3 µM	17500 nM	45.4 µM	17.4	34.8	15.3 µM	> 100 µM
COc1cc2c3c(n(C)c(=O)c2cc1OC)-c1cc2c(cc1/C3=C\CCCBr)OCO2	7.37 µM	25.3 µM	34800 nM	> 86.8 µM		17.1 µM	58.3 µM	> 100 µM	21400 nM	> 66.2 µM		> 30.2 µM	> 100	> 100	> 49.7 µM	> 100 µM
C#CCNC(=O)CC[C@]1(C)[C@H]2CC[C@@H]3[C@@H]([C@@](C)(O)CCC=C(C)C)CC[C@@]3(C)[C@]2(C)CC[C@H]1C(=C)C	25.3 µM	> 100 µM	20800 nM	59.3 µM	35	> 100 µM	17.8 µM	49.6 µM	17000 nM	47.3 µM	15200 nM	35.1 µM	26.9	80	14.1 µM	29.1 µM
C=CCN(/C=C1\C(=O)O[C@H](COC)[C@@]2(C)C1=C(O)C(=O)C1=C2[C@H](OC(C)=O)C[C@]2(C)C(=O)CC[C@@H]12)CC=C	2.74 µM and 0.449 µM	20 µM and > 100 µM	2620 nM and 787 nM	20 µM and > 100 µM		20 µM and 71.3 µM	15.1 µM and 12 µM	20 µM and > 100 µM	1580 nM and 813 nM	20 µM and 17.1 µM	6460 nM and 2870 nM	20 µM and 22.2 µM	0.838	49.1	1.51 µM and 0.331 µM	20 µM and > 100 µM
COc1ccc(C2=C(c3cc(OC)c(OC)c(OC)c3)C(=O)CC2)cc1	1.8 µM	> 100 µM	147 nM	> 100 µM	0.355	> 100 µM	0.0449 µM	> 100 µM	405 nM	> 100 µM	67.1 nM	2.84 µM	0.489	> 100	3.75 µM	> 100 µM
C[C@H]1CC[C@@H]2[C@@H](C)[C@H]3[C@H](C[C@H]4[C@@H]5CC=C6C[C@@H](O)CC[C@]6(C)[C@H]5C[C@H](O)[C@]34C)N2C1		> 100 µM		> 100 µM		> 100 µM		> 100 µM		> 100 µM		> 100 µM		> 100		> 100 µM
COc1ccc(-c2nn(-c3cccc(NC(=O)Nc4cc(C(F)(F)F)cc(C(F)(F)F)c4)c3)cc2-c2ccncc2)cc1Cl	1.14 µM	50 µM	962 nM	4.08 µM	1.09	3.29 µM	1.05 µM	10 µM	1200 nM	4 µM	837 nM	2.64 µM	1.14	4.18	0.799 µM	7.32 µM
CCOC(=O)c1c(C)n2c(=O)cc(C)c3c(OC(C)=O)c(OC(C)=O)cc1c32	4.89 µM	> 71.5 µM	3370 nM	17.2 µM	7.05	31.5 µM	3.86 µM	> 37.9 µM	3130 nM	> 25.5 µM	4110 nM	15.1 µM	4.87	22.5	4.6 µM	> 35.8 µM
Clc1ccc(-c2nn3ncccc3c2-c2ccnc(Nc3ccccc3)n2)cc1	3.69 µM	> 25 µM	7940 nM	> 25 µM	> 21.4	> 25 µM	2.89 µM	> 25 µM	5770 nM	> 25 µM	5990 nM	> 25 µM	> 22.2	> 25	1.35 µM	> 16.1 µM
